Where two headings read alike, the source gives them in different places.
Assays:
Assay type in all cases: cell-based, human
XG3 myeloma cell line = assay: Cell proliferation assay (tritiated thymidine incorporation), XG3; conditions: for IC50: Homo sapiens; for IC10: XG3, concentration yielding 10% inhibition of proliferation
Experimental: (§1) Myeloma cells were harvested in the exponential growth phase (at day 3 after culture passage when the cell concentration is around 5×10^5 cells/ml). Cells were washed twice, cultured for 3 hours in RPMI1640 and 10% FCS, washed twice. This makes it possible to remove cell-bound growth factors (in particular recombinant IL-6). Then cells are plated in 96-well flat-bottomed microplates at various concentrations depending on their doubling time: • 5×10^3 cells/well in 100 μl for the cell lines: XG-1, XG-7 • 10^4 cells/well in […] for the cell lines: XG-2, XG-4, XG-6, XG-11, PRMI8226, L363 • 2×10^4 cells/well in 100 μl for the cell lines: XG-3, XG-12, XG-13, XG-14, XG-19, XG-20
(§2) The culture medium used were: • PRMI1640, 10% FCS and 0.5 ng/ml of IL-6 for XG-1, XG-2, XG-3, XG-4, XG-6, XG-7, XG-11, XG-12, XG-13, XG-19, XG-20 cells • X-VIVO20 and 0.5 ng/ml IL-6 for XG-14 cells • PRMI1640 and 10% FCS for RPMI8226 and L363 cells
(§3) The diluted compounds, DMSO or control culture medium were added in 100 μl at the start of the culture. Three culture wells were done for one compound dilution and the experiments were done twice (finally six culture wells for one compound dilution).
(§4) Cells were cultured for 4 days. Eight hours before the end of the culture, 0.5 μCi of tritiated thymidine were added in 50 μl of RPMI1640 and 10% FCS. Cells were then extracted with a cell collector and the thymidine incorporation was determined using a beta cell counter.
(§5) For each experiment, the mean tritiated thymidine incorporations (mean values determined on three culture wells) were plotted against the logarithmic concentrations of the compound. The curves were fitted with exponential regression, which was determined using the concentrations defining the inhibition response (usually 3-4 concentrations).
(§6) The concentrations yielding 50% and 90% inhibition of the proliferation of myeloma cells were determined with these regression curves.
(§7) The concentration yielding 10% (IC10) or 50% (IC50) inhibition of the myeloma cell lines were determined and the data are listed in Table 2.
(§8) Compound A was tested in combination with melphalan or Velcade. Increasing concentration of compound A (0, 0.01, 0.03, 0.12, 0.37, 1.1, 3.1, 10, 30 μM) were applied on 4 myeloma cell lines alone or in combination with Velcade or melphalan at concentration yielding around 10% or 50% inhibition.

XG7 myeloma cell line = assay: Cell proliferation assay (tritiated thymidine incorporation), XG7; conditions: for IC50: Homo sapiens; for IC10: XG7, concentration yielding 10% inhibition of proliferation
Experimental: as §1, §2, §3, §4, §5, §6, §7, §8

XG12 myeloma cell line = assay: Cell proliferation assay (tritiated thymidine incorporation), XG12; conditions: for IC50: Homo sapiens; for IC10: XG12, concentration yielding 10% inhibition of proliferation
Experimental: as §1, §2, §3, §4, §5, §6, §7, §8

L363 myeloma cell line = assay: Cell proliferation assay (tritiated thymidine incorporation), L363; conditions: for IC50: Homo sapiens; for IC10: L363, concentration yielding 10% inhibition of proliferation
Experimental: as §1, §2, §3, §4, §5, §6, §7, §8

Compound	IC50 (XG3 myeloma cell line)	IC10 (XG3 myeloma cell line)	IC50 (XG7 myeloma cell line)	IC10 (XG7 myeloma cell line)	IC50 (XG12 myeloma cell line)	IC10 (XG12 myeloma cell line)	IC50 (L363 myeloma cell line; L-363)	IC10 (L363 myeloma cell line)	IC50 (XG3 myeloma cell line; XG3, proliferation, read-out: IC50)	IC50 (XG7 myeloma cell line; XG7, proliferation, read-out: IC50)	IC50 (XG12 myeloma cell line; XG12, proliferation, read-out: IC50)	IC50 (L363 myeloma cell line; L-363, L363, proliferation, read-out: IC50)
N[C@@H](Cc1ccc(N(CCCl)CCCl)cc1)C(=O)O [Melphalan, melphalan]	1680 nM	490 nM	1180 nM	409 nM	1230 nM	318 nM	457 nM	110 nM	–	–	–	–
CC(C)C[C@H](NC(=O)[C@H](Cc1ccccc1)NC(=O)c1cnccn1)B(O)O [Velcade, bortezomib]	–	1.6 nM	–	1.4 nM	–	1.6 nM	–	4.9 nM	2.2 nM	3.5 nM	3.9 nM	8.4 nM

From patent US20100069316A1, “TREATMENT FOR MULTIPLE MYELOMA” (Ares Trading S.A., priority 2006, published 2010)
